Assay results from patent US20150299188A1, “HETEROCYCLIC COMPOUND” (priority 2012, published 2015).

These compounds were tested on FLAP (5-lipoxygenase activating protein) (assay: In vitro binding test: displacement of [3H]-7-chloro-3-(5-((3-fluoropyridin-2-yl)methoxy)-2-methylphenyl)-3,4-dihydroquinazolin-2(1H)-one from Sf9 microsome fractions). Conditions: Sf9 microsome fractions expressing FLAP; 100% = radioligand binding with 10 μM sodium 3-(3-(tert-butylsulfanyl)-1-(4-chlorobenzyl)-5-isopropyl-1H-indol-2-yl)-2,2-dimethylpropanoate, 0% = DMSO; test compound concentration not given.
Design: species or system human and mouse
In short: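 Sf9 microsomes expressing human or mouse FLAP (2 μg/mL) preincubated with compound 10 min at room temperature, then 120 nM tritiated quinazolinone ligand added for 60 min; buffer 100 mM Tris-HCl pH 7.5 with NaCl, EDTA, DTT, glycerol, Tween20. Bound ligand filtered and counted by scintillation; 10 μM indole propanoate defines 100% inhibition, DMSO 0%.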

Compared with `O=C1Nc2ccccc2CN1c1cc(OCc2ncccc2F)ccc1Br` [Example 212, 3-(2-bromo-5-((3-fluoropyridin-2-yl)methoxy)phenyl)-3,4-dihydroquinazolin-2(1H)-one], `O=C1Nc2ccccc2CN1c1cc(OCc2ncccc2F)ccc1Cl` [Example 231, 3-(2-chloro-5-((3-fluoropyridin-2-yl)methoxy)phenyl)-3,4-dihydroquinazolin-2(1H)-one] is lower in “inhibitory rate (%)” value: 113% for the first, 103% for the second.

Compared with `O=C1Nc2ccccc2CN1c1cc(OCc2ncccc2F)ccc1C1CC1` [Example 213, 3-(2-cyclopropyl-5-((3-fluoropyridin-2-yl)methoxy)phenyl)-3,4-dihydroquinazolin-2(1H)-one], `O=C(NC1CC1)c1ccc(OCc2ncccc2F)cc1N1Cc2ccccc2NC1=O` [Example 221, N-cyclopropyl-4-((3-fluoropyridin-2-yl)methoxy)-2-(2-oxo-1,4-dihydroquinazolin-3(2H)-yl)benzamide] is lower in “inhibitory rate (%)” value: 114% for the first, 72% for the second.

First: O=C1Nc2ccccc2CN1c1cc(OCc2ncccc2F)ccc1C(F)(F)F [Example 214, 3-(5-((3-fluoropyridin-2-yl)methoxy)-2-(trifluoromethyl)phenyl)-3,4-dihydroquinazolin-2(1H)-one]
Second: CCc1ccc(OCc2ncccc2F)cc1N1Cc2ccccc2NC1=O [Example 220, 3-(2-ethyl-5-((3-fluoropyridin-2-yl)methoxy)phenyl)-3,4-dihydroquinazolin-2(1H)-one]
The “inhibitory rate (%)” value of the first is higher: 110% for the first, 106% for the second.

Going from `Cc1ccc(OC(C)c2ncccc2F)cc1N1Cc2ccccc2NC1=O` (stereo not drawn) [Example 215, 3-(5-(1-(3-fluoropyridin-2-yl)ethoxy)-2-methylphenyl)-3,4-dihydroquinazolin-2(1H)-one] to `COC(=O)c1ccc(OCc2ncccc2F)cc1N1Cc2ccccc2NC1=O` [Example 219, methyl 4-((3-fluoropyridin-2-yl)methoxy)-2-(2-oxo-1,4-dihydroquinazolin-3(2H)-yl)benzoate], the “inhibitory rate (%)” value rises from 79% to 106%.

First: COC(=O)c1ccc2c(c1)NC(=O)N(c1cc(OCc3ncccc3F)ccc1C)C2 [Example 216, methyl 3-(5-((3-fluoropyridin-2-yl)methoxy)-2-methylphenyl)-2-oxo-1,2,3,4-tetrahydroquinazoline-7-carboxylate]
Second: COC(=O)c1ccc2c(c1)NC(=O)N(c1cc(OCc3nccc(Cl)c3F)ccc1C)C2 [Example 246, methyl 3-(5-((4-chloro-3-fluoropyridin-2-yl)methoxy)-2-methylphenyl)-2-oxo-1,2,3,4-tetrahydroquinazoline-7-carboxylate]
The “inhibitory rate (%)” value of the first is lower: 104% for the first, 109% for the second.

Going from `Cc1ccc(OCc2c(F)cccc2F)cc1N1Cc2cccc(C(C)(C)O)c2NC1=O` [Example 217, 3-(5-((2,6-difluorobenzyl)oxy)-2-methylphenyl)-8-(2-hydroxypropan-2-yl)-3,4-dihydroquinazolin-2(1H)-one] to `Cc1ccc(OCc2c(F)cccc2F)cc1N1Cc2cnccc2NC1=O` [Example 235, 3-(5-((2,6-difluorobenzyl)oxy)-2-methylphenyl)-3,4-dihydropyrido[4,3-d]pyrimidin-2(1H)-one], the “inhibitory rate (%)” value falls from 87% to 79%.

First: O=C1Nc2cc(CO)ccc2CN1c1cc(OCc2c(F)cccc2F)ccc1Cl [Example 218, 3-(2-chloro-5-((2,6-difluorobenzyl)oxy)phenyl)-7-(hydroxymethyl)-3,4-dihydroquinazolin-2(1H)-one]
Second: O=C1Nc2cc(CO)ccc2CN1c1cc(OCc2c(F)cccc2F)ccc1F [Example 234, 3-(5-((2,6-difluorobenzyl)oxy)-2-fluorophenyl)-7-(hydroxymethyl)-3,4-dihydroquinazolin-2(1H)-one]
The “inhibitory rate (%)” value of the first is higher: 95% for the first, 85% for the second.

Compared with `CC(C)(O)c1ccc2c(c1)NC(=O)N(c1cc(OCc3c(F)cccc3F)ccc1Cl)C2` [Example 222, 3-(2-chloro-5-((2,6-difluorobenzyl)oxy)phenyl)-7-(2-hydroxypropan-2-yl)-3,4-dihydroquinazolin-2(1H)-one], `CC(C)(O)c1ccc2c(c1)NC(=O)N(c1cc(OCc3c(F)cccc3F)ccc1F)C2` [Example 233, 3-(5-((2,6-difluorobenzyl)oxy)-2-fluorophenyl)-7-(2-hydroxypropan-2-yl)-3,4-dihydroquinazolin-2(1H)-one] is lower in “inhibitory rate (%)” value: 103% for the first, 87% for the second.

First: Cc1ccc(OCc2c(F)cccc2F)cc1N1Cc2ncccc2NC1=O [Example 223, 3-(5-((2,6-difluorobenzyl)oxy)-2-methylphenyl)-3,4-dihydropyrido[3,2-d]pyrimidin-2(1H)-one]
Second: Cc1ccc(OCc2c(F)cccc2F)cc1N1Cc2ccncc2NC1=O [Example 240, 3-(5-((2,6-difluorobenzyl)oxy)-2-methylphenyl)-3,4-dihydropyrido[3,4-d]pyrimidin-2(1H)-one]
The “inhibitory rate (%)” value of the first is higher: 95% for the first, 76% for the second.

Going from `N#Cc1ccc(OCc2ncccc2F)cc1N1Cc2ccccc2NC1=O` [Example 224, 4-((3-fluoropyridin-2-yl)methoxy)-2-(2-oxo-1,4-dihydroquinazolin-3(2H)-yl)benzonitrile] to `CCCc1ccc(OCc2ncccc2F)cc1N1Cc2ccccc2NC1=O` [Example 245, 3-(5-((3-fluoropyridin-2-yl)methoxy)-2-propylphenyl)-3,4-dihydroquinazolin-2(1H)-one], the “inhibitory rate (%)” value rises from 87% to 99%.

First: CCCCOC(=O)/C=C/c1ccc(OCc2ncccc2F)cc1N1Cc2ccccc2NC1=O [Example 225, butyl (2E)-3-(4-((3-fluoropyridin-2-yl)methoxy)-2-(2-oxo-1,4-dihydroquinazolin-3(2H)-yl)phenyl)acrylate]
Second: CCCCOC(=O)CCc1ccc(OCc2ncccc2F)cc1N1Cc2ccccc2NC1=O [Example 228, butyl 3-(4-((3-fluoropyridin-2-yl)methoxy)-2-(2-oxo-1,4-dihydroquinazolin-3(2H)-yl)phenyl)propanoate]
The “inhibitory rate (%)” value of the first is higher: 100% for the first, 95% for the second.

First: Cc1nc(COc2ccc(C)c(N3Cc4ccc(C(C)(C)O)cc4NC3=O)c2)cs1 [Example 226, 7-(2-hydroxypropan-2-yl)-3-(2-methyl-5-((2-methyl-1,3-thiazol-4-yl)methoxy)phenyl)-3,4-dihydroquinazolin-2(1H)-one]
Second: COC(=O)c1ccc2c(c1)NC(=O)N(c1cc(OCc3ncc(C)s3)ccc1C)C2 [Example 241, methyl 3-(2-methyl-5-((5-methyl-1,3-thiazol-2-yl)methoxy)phenyl)-2-oxo-1,2,3,4-tetrahydroquinazoline-7-carboxylate]
The “inhibitory rate (%)” value of the first is lower: 52% for the first, 94% for the second.

Going from `Cc1ccc(OCc2ncccc2F)cc1N1Cc2ccc(C(=O)N3CCCC(O)C3)cc2NC1=O` (stereo not drawn) [Example 227, 3-(5-((3-fluoropyridin-2-yl)methoxy)-2-methylphenyl)-7-((3-hydroxypiperidin-1-yl)carbonyl)-3,4-dihydroquinazolin-2(1H)-one] to `Cc1ccc(OCc2ncccc2F)cc1N1Cc2ccc(Cl)cc2NC1=O` [Example 244, 7-chloro-3-(5-((3-fluoropyridin-2-yl)methoxy)-2-methylphenyl)-3,4-dihydroquinazolin-2(1H)-one], the “inhibitory rate (%)” value rises from 90% to 113%.

Going from `O=C(O)CCc1ccc(OCc2ncccc2F)cc1N1Cc2ccccc2NC1=O` [Example 229, 3-(4-((3-fluoropyridin-2-yl)methoxy)-2-(2-oxo-1,4-dihydroquinazolin-3(2H)-yl)phenyl)propanoic acid] to `CCOC(=O)CCCCc1ccc(OCc2ncccc2F)cc1N1Cc2ccccc2NC1=O` [Example 248, ethyl 5-(4-((3-fluoropyridin-2-yl)methoxy)-2-(2-oxo-1,4-dihydroquinazolin-3(2H)-yl)phenyl)pentanoate], the “inhibitory rate (%)” value rises from 76% to 98%.

Going from `COC(=O)c1ccc2c(c1)NC(=O)N(c1cc(OCc3ccccn3)ccc1C)C2` [Example 232, methyl 3-(2-methyl-5-(pyridin-2-ylmethoxy)phenyl)-2-oxo-1,2,3,4-tetrahydroquinazoline-7-carboxylate] to `COC(=O)c1ccc2c(c1)NC(=O)N(c1cc(OCc3nccs3)ccc1C)C2` [Example 237, methyl 3-(2-methyl-5-(1,3-thiazol-2-ylmethoxy)phenyl)-2-oxo-1,2,3,4-tetrahydroquinazoline-7-carboxylate], the “inhibitory rate (%)” value falls from 104% to 100%.

First: Cc1ccc(OCc2c(F)cccc2F)cc1N1Cc2nn(C)cc2NC1=O [Example 236, 6-(5-((2,6-difluorobenzyl)oxy)-2-methylphenyl)-2-methyl-2,4,6,7-tetrahydro-5H-pyrazolo[4,3-d]pyrimidin-5-one]
Second: Cc1ccc(OCc2ncccc2F)cc1N1Cc2c(Cl)cccc2NC1=O [Example 242, 5-chloro-3-(5-((3-fluoropyridin-2-yl)methoxy)-2-methylphenyl)-3,4-dihydroquinazolin-2(1H)-one]
The “inhibitory rate (%)” value of the first is lower: 65% for the first, 102% for the second.

Going from `CC(C)(O)c1ccc2c(c1)NC(=O)N(c1cc(OCc3c(F)cccc3F)ccc1C(F)(F)F)C2` [Example 238, 3-(5-((2,6-difluorobenzyl)oxy)-2-(trifluoromethyl)phenyl)-7-(2-hydroxypropan-2-yl)-3,4-dihydroquinazolin-2(1H)-one] to `O=C1Nc2cc(CO)ccc2CN1c1cc(OCc2c(F)cccc2F)ccc1C(F)(F)F` [Example 239, 3-(5-((2,6-difluorobenzyl)oxy)-2-(trifluoromethyl)phenyl)-7-(hydroxymethyl)-3,4-dihydroquinazolin-2(1H)-one], the “inhibitory rate (%)” value rises from 84% to 86%.

First: Cc1ccc(OCc2ncccc2F)cc1N1Cc2cc(Cl)ccc2NC1=O [Example 243, 6-chloro-3-(5-((3-fluoropyridin-2-yl)methoxy)-2-methylphenyl)-3,4-dihydroquinazolin-2(1H)-one]
Second: Cc1ccc(OCc2ncc(F)cc2F)cc1N1Cc2ccccc2NC1=O [Example 247, 3-(5-((3,5-difluoropyridin-2-yl)methoxy)-2-methylphenyl)-3,4-dihydroquinazolin-2(1H)-one]
The “inhibitory rate (%)” value of the first is higher: 100% for the first, 99% for the second.
